# Laboratory results published in the Kinase Knowledgebase extract (Sharma et al. 2016).
# Tests used:
# PIK3CD (Human) = PIK3CD (Human) (UniProt O00329); assay: Assessment of PIK3CD Kinase Activity
# PIK3CA (human) = PIK3CA (human) (UniProt P42336); assay: Assessment of PIK3CA Kinase Activity
# PIK3CG (human) = PIK3CG (human) (UniProt P48736); assay: Assessment of PIK3CG Kinase Activity
# Sequence of PIK3CG (human) (P48736 whole entry, looked up): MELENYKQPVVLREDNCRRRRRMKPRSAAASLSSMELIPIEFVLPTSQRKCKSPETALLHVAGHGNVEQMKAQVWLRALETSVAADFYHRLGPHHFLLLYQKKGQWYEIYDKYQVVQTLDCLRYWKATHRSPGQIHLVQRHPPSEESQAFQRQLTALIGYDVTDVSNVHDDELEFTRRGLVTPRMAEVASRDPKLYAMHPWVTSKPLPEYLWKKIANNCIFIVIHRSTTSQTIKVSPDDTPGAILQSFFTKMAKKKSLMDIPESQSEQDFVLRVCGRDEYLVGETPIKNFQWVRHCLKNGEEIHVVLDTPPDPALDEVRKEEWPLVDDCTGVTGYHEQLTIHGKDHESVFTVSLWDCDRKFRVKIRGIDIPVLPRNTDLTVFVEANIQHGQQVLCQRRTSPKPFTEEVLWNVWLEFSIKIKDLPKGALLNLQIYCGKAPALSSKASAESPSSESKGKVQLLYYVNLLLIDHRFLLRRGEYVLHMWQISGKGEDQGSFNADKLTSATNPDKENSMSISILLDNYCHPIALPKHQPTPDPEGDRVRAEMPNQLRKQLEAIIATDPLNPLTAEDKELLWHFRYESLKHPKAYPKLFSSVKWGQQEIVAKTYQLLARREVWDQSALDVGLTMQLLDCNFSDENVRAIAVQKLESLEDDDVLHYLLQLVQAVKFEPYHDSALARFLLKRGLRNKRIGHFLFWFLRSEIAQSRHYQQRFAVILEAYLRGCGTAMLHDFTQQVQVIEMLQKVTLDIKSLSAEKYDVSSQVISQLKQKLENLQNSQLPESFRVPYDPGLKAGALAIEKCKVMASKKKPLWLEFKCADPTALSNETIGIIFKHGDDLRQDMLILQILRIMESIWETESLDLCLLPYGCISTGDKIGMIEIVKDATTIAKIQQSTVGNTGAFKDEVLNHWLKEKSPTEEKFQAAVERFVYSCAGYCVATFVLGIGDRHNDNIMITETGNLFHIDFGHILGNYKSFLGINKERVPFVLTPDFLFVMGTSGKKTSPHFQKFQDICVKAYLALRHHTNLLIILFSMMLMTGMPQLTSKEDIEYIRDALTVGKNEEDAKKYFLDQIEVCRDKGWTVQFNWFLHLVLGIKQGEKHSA
# Sequence of PIK3CA (human) (P42336 whole entry, looked up): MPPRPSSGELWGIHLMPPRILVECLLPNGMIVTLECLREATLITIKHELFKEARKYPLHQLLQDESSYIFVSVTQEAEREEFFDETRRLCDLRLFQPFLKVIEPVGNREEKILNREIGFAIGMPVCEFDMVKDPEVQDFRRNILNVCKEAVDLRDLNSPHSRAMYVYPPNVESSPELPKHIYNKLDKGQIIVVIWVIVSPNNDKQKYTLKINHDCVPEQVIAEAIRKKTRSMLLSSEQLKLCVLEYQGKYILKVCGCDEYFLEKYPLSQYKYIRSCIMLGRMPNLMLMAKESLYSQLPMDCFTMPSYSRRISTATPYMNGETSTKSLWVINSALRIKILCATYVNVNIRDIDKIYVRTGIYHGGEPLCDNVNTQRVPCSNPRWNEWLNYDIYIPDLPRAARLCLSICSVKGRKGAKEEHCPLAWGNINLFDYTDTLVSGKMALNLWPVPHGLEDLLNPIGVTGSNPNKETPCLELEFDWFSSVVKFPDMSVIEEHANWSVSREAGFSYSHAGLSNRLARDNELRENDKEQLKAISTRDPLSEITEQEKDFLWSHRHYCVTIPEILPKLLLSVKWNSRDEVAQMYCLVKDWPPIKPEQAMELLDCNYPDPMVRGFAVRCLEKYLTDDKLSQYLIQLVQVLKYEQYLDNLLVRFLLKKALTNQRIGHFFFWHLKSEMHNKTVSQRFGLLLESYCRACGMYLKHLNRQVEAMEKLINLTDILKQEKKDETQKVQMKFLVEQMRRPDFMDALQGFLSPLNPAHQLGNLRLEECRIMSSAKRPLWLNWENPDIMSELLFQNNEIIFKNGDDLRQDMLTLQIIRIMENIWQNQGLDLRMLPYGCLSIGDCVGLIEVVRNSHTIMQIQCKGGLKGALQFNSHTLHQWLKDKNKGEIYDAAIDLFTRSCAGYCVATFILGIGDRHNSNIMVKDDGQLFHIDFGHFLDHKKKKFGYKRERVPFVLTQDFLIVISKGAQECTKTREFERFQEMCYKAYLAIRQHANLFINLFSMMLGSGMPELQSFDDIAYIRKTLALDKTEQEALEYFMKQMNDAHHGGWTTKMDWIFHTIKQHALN
# Sequence of PIK3CD (Human) (O00329 whole entry, looked up): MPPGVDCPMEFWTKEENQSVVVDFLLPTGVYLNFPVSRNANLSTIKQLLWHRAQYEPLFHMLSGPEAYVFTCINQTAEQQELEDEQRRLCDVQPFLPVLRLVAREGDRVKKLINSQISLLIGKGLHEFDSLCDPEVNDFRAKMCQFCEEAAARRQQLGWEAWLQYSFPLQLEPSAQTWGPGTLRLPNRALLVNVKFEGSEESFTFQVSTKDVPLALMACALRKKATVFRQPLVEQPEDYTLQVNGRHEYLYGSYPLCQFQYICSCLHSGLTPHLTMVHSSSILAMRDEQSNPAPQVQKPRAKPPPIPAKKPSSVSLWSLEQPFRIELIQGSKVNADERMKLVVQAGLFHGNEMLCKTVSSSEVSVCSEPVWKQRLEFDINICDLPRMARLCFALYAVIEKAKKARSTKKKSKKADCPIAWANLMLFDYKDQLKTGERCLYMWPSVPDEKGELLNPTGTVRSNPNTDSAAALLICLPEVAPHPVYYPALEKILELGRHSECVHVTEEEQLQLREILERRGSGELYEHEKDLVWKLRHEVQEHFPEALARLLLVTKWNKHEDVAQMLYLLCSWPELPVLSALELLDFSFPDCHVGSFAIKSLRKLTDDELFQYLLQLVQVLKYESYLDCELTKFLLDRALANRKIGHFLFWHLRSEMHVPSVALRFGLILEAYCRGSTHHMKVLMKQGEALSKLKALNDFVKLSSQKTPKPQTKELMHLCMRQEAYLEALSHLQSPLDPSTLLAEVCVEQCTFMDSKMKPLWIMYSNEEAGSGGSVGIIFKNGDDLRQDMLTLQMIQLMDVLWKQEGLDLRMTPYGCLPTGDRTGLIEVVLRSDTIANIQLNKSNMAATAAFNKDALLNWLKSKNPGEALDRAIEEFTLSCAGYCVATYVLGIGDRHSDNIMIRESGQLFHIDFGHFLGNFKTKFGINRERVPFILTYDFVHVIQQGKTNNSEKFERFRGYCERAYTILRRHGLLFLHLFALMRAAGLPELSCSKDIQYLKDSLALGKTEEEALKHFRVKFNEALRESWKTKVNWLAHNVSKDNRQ
Compound,IC50 (PIK3CD (Human)) [µM],IC50 (PIK3CA (human)) [µM],IC50 (PIK3CG (human)) [µM]
COc1cccc(-c2cccc3cc([C@H](C)Nc4nc(N)ncc4C#N)n(-c4ccccc4)c(=O)c23)n1,< 0.1,> 10,< 0.1
C[C@H](Nc1nc(N)ncc1C#N)c1cc2cccc(-c3ccnnc3)c2c(=O)n1-c1cccc(F)c1,< 0.1,> 10,0.1 to 1
C[C@H](Nc1nc(N)ncc1C#N)c1cc2cccc(Cl)c2c(=O)n1-c1ccc(OC(F)(F)F)cc1,0.1 to 1,> 10,0.1 to 1
C[C@H](Nc1nc(N)ncc1C#N)c1cc2cccc(CC#N)c2c(=O)n1-c1ccccc1,< 0.1,> 10,< 0.1
C[C@H](Nc1nc(N)ncc1-c1cccs1)c1cc2cccc(Cl)c2c(=O)n1-c1ccccc1,< 0.1,> 10,< 0.1
Cc1cccc2cc([C@H](C)Nc3nc(N)ncc3C(F)(F)F)n(-c3cccc(F)c3)c(=O)c12,< 0.1,> 10,< 0.1
C[C@H](Nc1nc(N)ncc1C#N)c1cc2cccc(Cl)c2c(=O)n1CC(C)(C)C,0.1 to 1,> 10,0.1 to 1
Cc1ccc(-n2c([C@H](C)Nc3nc(N)ncc3C#N)cc3cccc(Cl)c3c2=O)cc1,< 0.1,> 10,< 0.1
COc1cncc(-c2cccc3cc([C@H](C)Nc4nc(N)ncc4C(N)=O)n(-c4ccccc4)c(=O)c23)c1,< 0.1,0.1 to 1,< 0.1
COc1cc(-c2cccc3cc([C@H](C)Nc4nc(N)ncc4-c4cnc(C)s4)n(-c4ccccc4)c(=O)c23)ccn1,< 0.1,0.1 to 1,< 0.1
C[C@H](Nc1nc(N)ncc1C#N)c1cc2cccc(-c3ccc(F)cc3)c2c(=O)n1-c1ccccc1,< 0.1,0.1 to 1,< 0.1
C[C@H](Nc1nc(N)ncc1C#N)c1cc2cccc(Cl)c2c(=O)n1-c1c(F)cc(F)cc1F,0.1 to 1,> 10,< 0.1
Cc1nc(-c2cnc(N)nc2N[C@@H](C)c2cc3cccc(Cl)c3c(=O)n2-c2ccccc2)sc1C,0.1 to 1,> 10,0.1 to 1
COc1cncc(-c2cccc3cc([C@H](C)Nc4nc(N)ncc4C#N)n(-c4cccc(F)c4)c(=O)c23)c1,< 0.1,0.1 to 1,< 0.1
C[C@H](Nc1nc(N)ncc1C#N)c1cc2cccc(-c3cccc(Cl)c3)c2c(=O)n1-c1ccccc1,< 0.1,0.1 to 1,< 0.1
C[C@H](Nc1nc(N)ncc1C#N)c1cc2cccc(-c3cncc(N(C)S(C)(=O)=O)c3)c2c(=O)n1-c1ccccc1,< 0.1,0.1 to 1,< 0.1
C[C@H](Nc1nc(N)ncc1-c1nccs1)c1cc2cccc(Cl)c2c(=O)n1-c1ccccc1,< 0.1,–,< 0.1
C[C@H](Nc1nc(N)ncc1C#N)c1cc2cccc(-c3ccc(N(C)C)cc3)c2c(=O)n1-c1ccccc1,< 0.1,–,< 0.1
C[C@H](Nc1nc(N)ncc1C#N)c1cc2cccc(-c3cncc(S(C)(=O)=O)c3)c2c(=O)n1-c1ccccc1,< 0.1,–,< 0.1
C[C@H](Nc1nc(N)ncc1C#N)c1cc2cccc(-c3ccc(C#N)cc3)c2c(=O)n1-c1ccccc1,< 0.1,–,< 0.1
C[C@H](Nc1nc(N)ncc1C#N)c1cc2cccc(-c3cccc(C#N)c3)c2c(=O)n1-c1ccccc1,< 0.1,–,< 0.1
C[C@H](Nc1nc(N)ncc1C#N)c1cc2cccc(Cl)c2c(=O)n1-c1ccc(C#N)cc1,–,> 10,0.1 to 1
C[C@H](Nc1nc(N)ncc1C#N)c1cc2cccc(-c3cccc(NS(C)(=O)=O)c3)c2c(=O)n1-c1ccccc1,< 0.1,–,< 0.1
Cc1ncc(-c2cccc3cc([C@H](C)Nc4nc(N)ncc4C#N)n(-c4ccccc4)c(=O)c23)s1,< 0.1,–,< 0.1
CC(C)n1cc(-c2cccc3cc([C@H](C)Nc4nc(N)ncc4C#N)n(-c4ccccc4)c(=O)c23)ccc1=O,< 0.1,–,< 0.1
